From patent US20240344108A1, “GALACTOSE RAPID QUANTITATIVE DETECTION SYSTEM AND USE THEREOF” (Avalon HepaPOC Limited, priority 2018, published 2024)
Where two headings read alike, the source gives them in different places.

Key:
galactose dehydrogenase [1] = target: T1, galactose dehydrogenase (Pseudomonas fluorescens, UniProt P11886); assay: Stabilizer analysis: linearity test of the galactose test strip system with different stabilizers; settings: 0.05%, 2.5% and 5.5%
T1 construct: purchased
T1 sequence (P11886 1-304): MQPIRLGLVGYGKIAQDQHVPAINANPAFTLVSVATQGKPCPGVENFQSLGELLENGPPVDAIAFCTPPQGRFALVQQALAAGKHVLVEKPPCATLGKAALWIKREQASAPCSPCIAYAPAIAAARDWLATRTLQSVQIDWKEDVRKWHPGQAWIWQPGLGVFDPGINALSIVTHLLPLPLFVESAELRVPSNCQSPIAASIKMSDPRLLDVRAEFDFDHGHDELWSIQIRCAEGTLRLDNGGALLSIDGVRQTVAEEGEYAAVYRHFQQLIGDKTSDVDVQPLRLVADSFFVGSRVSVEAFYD
Description: Galactochek Blood Galactose Meters, the galactose rapid detection system (galactose dehydrogenase concentration: 13.39%) with different types of stabilizers and concentrations, and YSI 2900 Automatic analyzer.
All chemicals were purchased from Sigma-Aldrich (St. Louis, MO). A stock solution of galactose at 20 mg/mL was prepared with reverse osmosis water. The standard solutions are used to prepare different galactose concentration blood sample. The final concentration of galactose in blood were 200, 450, 800, 1150 and 1500 μg/mL.
Obtain the R^2 value of the linearity test result of different strip test groups to evaluate that which type of stabilizer and concentration were suitable to be used in the system. In addition, % CV≤20% at galactose concentration range of 200-250 μg/mL, and % CV≤15% at galactose concentration range of 251-1500 μg/mL.

galactose dehydrogenase [2] = target: T1, galactose dehydrogenase; assay: Electrochemical response after galactose dehydrogenase immobilization and drying onto the biosensor with protectant; settings: protectant used as stabilizer during immobilization and drying
Text: The electrochemistry-based biosensor is designed as a test strip of electrode containing a reaction zone where galactose within the blood sample is to react with galactose metabolic enzymes, leading to the generation of an electrochemical signal. Two galactose-catalyzing enzymes, galactose dehydrogenase (GD) and galactose oxidase (GO) capable of generating electrochemical information, were selected for embedded immobilization and drying onto the electrode to enable electrochemical signal production. […] However, GO catalyzes the oxidation of primary alcohols and sugars (including d-galactose and lactose) in the presence of oxygen, thus impacting the accuracy of quantitation. Aggravatingly, excessive oxygen can compete with the electron mediator of the oxidase-based amperometric strip for electrons, thus resulting in underestimation of galactose measurement. This poses a challenge in point-of-care (POC) scenarios where fresh whole blood sample, rich in oxygen due to prolonged exposure to the atmosphere, or from critically ill patients receiving oxygen support, are utilized.
Galactose dehydrogenase, on the other hand, catalyzes d-galactose with high specificity without the involvement of oxygen. The enzyme was therefore used to be immobilized and dried onto the biosensor. […]

[3] = Intravenous injection galactose GSP test (blood galactose after intravenous galactose); assay type: in vivo; settings: human, plasma, 0.5 g/kg, average ± standard error
Description: The conventional detection method is used for intravenous injection of 0.5 g/kg galactose after fasting for 8 hours, and measured the galactose concentration in plasma after 60 minutes (Tang H. S. et al. (1992) Digestion, 52:222-231; Ranek L. et al. (1983) Clin. Physiol. 3:173-178). The measurement method comprises: drawing a measurement curve according to a relationship between different concentrations of standard galactose solutions and light absorption values thereof; adding HClO4 in the extracted blood and shaking for mixing, then taking supernatant by centrifugation; adding KOH into the supernatant and shaking for mixing, then taking supernatant by centrifugation again; and then adding galactose dehydrogenase into the supernatant and placing in a dark room for 60 minutes to avoid color reaction inaccuracy for preparing of a specimen and measuring the light absorption value thereof; and finally finding the concentration value by the measurement curve. However, the detection process is complicated and time-consuming, and requires using a variety of medicaments. Therefore, it takes lengthy procedure to learn the detecting result.
The oral administration galactose OGSP values of the subjects in the liver function normal group are in the range 318±27 μg/ml (average±standard error) with the minimum value 18 μg/ml and maximum value 887 μg/ml. […] The oral administration galactose OGSP values of the subjects in the liver function severely impaired group are in the range 777±48 μg/ml with the minimum value 293 μg/ml and maximum value 1499 μg/ml. […] Particularly, the oral administration galactose OGSP value is higher than the intravenous injection galactose GSP value. […] The oral administration galactose OGSP values of the subjects in the liver function severely impaired group are mainly in the range of 681-873 μg/ml (average+2*standard error). […] Therefore, further liver function tests should be taken in the subjects whose OGSP value is greater than 370 μg/ml. In additional to intravencous injection, similar results were obtained by other injection or other administration ways.

clinical = settings: human, in vivo
Text: The user needs to drink the oral galactose composition first, wherein the content of the galactose is 1%-80%, preferably 4%-40%, by weight of the total galactose composition, wherein the buffer solution can be not added or can be added to the total weight of 0.001%-5%, and the antioxidant can be not added or can be added to the total weight of 0.001%-5%. Appropriate formula can be prepared by selecting the buffer and the antioxidant, and adding the content of the following ingredients: antioxidant of 0.01M-1M selected from a group including vitamin C, sodium bisulfite, vitamin A, vitamin E, flavonoids, polyphenols, Ethylenediaminetetraacetic acid (EDTA), Diethylenetriaminepentaacetic acid (DTPA), and NTA-Nitrilotriacetate acid (NTA); and/or buffer solution of 0.01M-1M selected from a group including acetic buffer, citrate buffer, phosphate buffer, acetate buffer, carbonate buffer, ascorbic acid buffer, and triethanolamine buffer with adjustment of the pH values ranged 4.0-9.0. A stable formula can be obtained by adding 0.01% citrate buffer and 0.5% sodium bisulfite with a pH value of 4.5. […]
Before sampling biological sample, wipe the fingertips with alcohol cotton. […] In addition, the potential of this readout can be transmitted to the others including medical practitioners through Bluetooth or similar connection through a mobile phone or computer. […]

[4] = average ± standard error, literature values, cited from earlier work

Structure (SMILES): NCC(=O)O [Glycine, glycine]
- suitability as stabilizer in the system (galactose dehydrogenase [1]): not suitable

Structure (SMILES): OC[C@@H](O)[C@@H](O)[C@H](O)[C@H](O)CO [Mannitol, mannitol]
- suitability as stabilizer in the system (galactose dehydrogenase [1]): not suitable

Structure (SMILES): OC[C@H]1O[C@@](CO)(O[C@H]2O[C@H](CO)[C@@H](O)[C@H](O)[C@H]2O)[C@@H](O)[C@@H]1O [Sucrose, sucrose]
- suitability as stabilizer in the system (galactose dehydrogenase [1]): not suitable

Structure (SMILES): OC[C@H]1O[C@H](O[C@H]2O[C@H](CO)[C@@H](O)[C@H](O)[C@H]2O)[C@H](O)[C@@H](O)[C@@H]1O [Trehalose, trehalose]
- galactose-dependent electrochemical signal of GD-based biosensor (galactose dehydrogenase [2]): successfully preserved the activity of enzyme

Structure (SMILES): O=C[C@H](O)[C@@H](O)[C@@H](O)[C@H](O)CO [galactose]
- concentration at 60 min ([3]; Mild or moderate impairment of liver function (N = 31)): 359 ± 10 µg/mL
- concentration at 60 min ([3]; Normal liver function (N = 56)): 174 ± 8 µg/mL
- concentration at 60 min ([3]; Severe impairment of liver function (N = 40)): 667 ± 29 µg/mL
- concentration at 60 min (clinical; OGSP maximum value): 887 µg/mL
- concentration at 60 min (clinical; OGSP values mainly in the range): 510 to 670 µg/mL
- IV GSP, Digestion 1992; 52: 222-231 ([4]; Mild or moderate impairment of liver function): 423 ± 26.0 µg/mL
- IV GSP, Digestion 1992; 52: 222-231 ([4]; Normal liver function): 247 ± 16.5 µg/mL
- IV GSP, Digestion 1992; 52: 222-231 ([4]; Severe impairment of liver function): 630 ± 41.0 µg/mL
